Data as given in US20130197032A1, “[…] COMPOUNDS FOR THE TREATMENT OF NEUROLOGICAL AND […] DISORDERS” (A. CARLSSON RESEARCH AB, priority 2010, published 2013).
Blank lines part the entries; values can stand above or below the molecule they belong to.

Assays:
[1] = biological target: T1, human 5-HT2C(vgv) receptor (Homo sapiens, UniProt P28335, I156V/I160V/N158G); experiment: R-SAT assay 5-HT2C; format: cell-based; settings: Table 3, 5-HT2C; percent response of reference 5-CT
T1 construct: expressed in transfected cells; host or cells: NIH/3T3
T1 sequence (P28335 33-458 I156V/N158G/I160V): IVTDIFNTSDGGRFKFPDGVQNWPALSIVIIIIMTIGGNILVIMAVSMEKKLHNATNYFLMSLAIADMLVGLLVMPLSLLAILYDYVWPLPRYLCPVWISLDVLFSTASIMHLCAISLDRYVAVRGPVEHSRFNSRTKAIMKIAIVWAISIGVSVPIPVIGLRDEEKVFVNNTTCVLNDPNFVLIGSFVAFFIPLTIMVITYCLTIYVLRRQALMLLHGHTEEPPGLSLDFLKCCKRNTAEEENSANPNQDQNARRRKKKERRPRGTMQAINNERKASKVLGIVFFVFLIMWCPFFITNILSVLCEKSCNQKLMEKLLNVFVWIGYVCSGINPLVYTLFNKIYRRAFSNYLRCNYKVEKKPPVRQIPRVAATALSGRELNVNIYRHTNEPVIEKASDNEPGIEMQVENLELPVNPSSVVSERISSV

human 5-HT1D receptor = biological target: T2, human 5-HT1D receptor (Homo sapiens, UniProt P28221); experiment: R-SAT assay 5-HT1D; format: cell-based; settings: Table 3, 5-HT1D; percent response of reference 5-CT
T2 construct: expressed in transfected cells; host or cells: NIH/3T3

human 5-HT6 receptor = human 5-HT6 receptor (Homo sapiens, UniProt P50406); experiment: R-SAT assay 5-HT6; format: cell-based
human 5-HT2A receptors [2] = biological target: T3, human 5-HT2A receptors (Homo sapiens, UniProt P28223); experiment: BRET2 beta-arrestin-2 recruitment assay at 5-HT2A; format: cell-based; parameters: expressed in transfected cells; host or cells: HEK-293T; settings: mean ± SEM
Procedure: (§1) BRET-2 signals were measured using the multiplate reader Mithras 940LB (Berthold Technologies, Bad Wildbad, Germany) and were calculated as the ratio between the Renilla luciferase emission and the GFP2 emission corrected by the background emissions of non-transfected cells.

human 5-HT2A receptors [3] = biological target: T3, human 5-HT2A receptors; experiment: Phosphatidyl inositol (PI) hydrolysis assay at 5-HT2A; format: cell-based; parameters: expressed in transfected cells; settings: mean ± SEM
Procedure: After lysing the cells with 50 μl of 0.1M formic acid, 20 μl each cell lysate was mixed with 80 μl (1 mg) RNA Binding YSi-SPA beads (GE Healthcare, Chalfont St. Giles, UK) on PICO plates (PerkinElmer) and counted on a TopCount (Packard).
Each curve is representative of at least three or more independent experiments.

5-HT2B receptors = 5-HT2B receptors (Homo sapiens, UniProt P41595); experiment: R-SAT assay 5-HT2B; format: cell-based; parameters: expressed in transfected cells; host or cells: NIH/3T3
human 5-HT7 receptor = biological target: T4, human 5-HT7 receptor (Homo sapiens, UniProt P34969); experiment: R-SAT assay 5-HT7; format: cell-based; settings: Table 3, 5-HT7; percent response of reference 5-CT
T4 construct: expressed in transfected cells; host or cells: NIH/3T3

human 5-HT2A receptors [4] = biological target: T3, human 5-HT2A receptors; experiment: R-SAT functional assay at 5-HT2A; format: cell-based; parameters: expressed in transfected cells; host or cells: NIH-3T3
human 5-HT1B receptor = human 5-HT1B receptor (Homo sapiens, UniProt P28222); experiment: R-SAT assay 5-HT1B; format: cell-based
human M5 receptor = biological target: T5, human M5 receptor (Homo sapiens, UniProt P08912); experiment: R-SAT assay M5; format: cell-based; settings: Table 3, M5; percent response of reference Carbachol
T5 construct: expressed in transfected cells; host or cells: NIH/3T3 cells, transient transfection, pSI vector

human M2 receptor = biological target: T6, human M2 receptor (Homo sapiens, UniProt P08172); experiment: R-SAT assay M2; format: cell-based; settings: Table 3, M2; percent response of reference Carbachol
T6 construct: expressed in transfected cells; host or cells: NIH/3T3
T6 sequence (P08172 1-466): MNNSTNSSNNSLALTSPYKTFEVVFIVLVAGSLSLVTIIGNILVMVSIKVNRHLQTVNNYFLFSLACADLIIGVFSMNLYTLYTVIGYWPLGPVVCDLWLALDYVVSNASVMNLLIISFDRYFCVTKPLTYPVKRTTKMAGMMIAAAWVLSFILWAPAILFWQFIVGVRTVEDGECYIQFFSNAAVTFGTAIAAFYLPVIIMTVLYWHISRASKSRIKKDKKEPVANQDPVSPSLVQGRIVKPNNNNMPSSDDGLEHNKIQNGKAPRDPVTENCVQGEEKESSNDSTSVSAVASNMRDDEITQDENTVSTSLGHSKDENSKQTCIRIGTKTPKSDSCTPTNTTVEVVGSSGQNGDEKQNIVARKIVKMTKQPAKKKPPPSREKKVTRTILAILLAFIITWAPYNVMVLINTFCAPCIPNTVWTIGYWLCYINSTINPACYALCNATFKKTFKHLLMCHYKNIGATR

human M4 receptor = biological target: T7, human M4 receptor (Homo sapiens, UniProt P08173); experiment: R-SAT assay M4; format: cell-based; settings: Table 3, M4; percent response of reference Carbachol
T7 construct: expressed in transfected cells; host or cells: NIH/3T3
T7 sequence (P08173 1-479): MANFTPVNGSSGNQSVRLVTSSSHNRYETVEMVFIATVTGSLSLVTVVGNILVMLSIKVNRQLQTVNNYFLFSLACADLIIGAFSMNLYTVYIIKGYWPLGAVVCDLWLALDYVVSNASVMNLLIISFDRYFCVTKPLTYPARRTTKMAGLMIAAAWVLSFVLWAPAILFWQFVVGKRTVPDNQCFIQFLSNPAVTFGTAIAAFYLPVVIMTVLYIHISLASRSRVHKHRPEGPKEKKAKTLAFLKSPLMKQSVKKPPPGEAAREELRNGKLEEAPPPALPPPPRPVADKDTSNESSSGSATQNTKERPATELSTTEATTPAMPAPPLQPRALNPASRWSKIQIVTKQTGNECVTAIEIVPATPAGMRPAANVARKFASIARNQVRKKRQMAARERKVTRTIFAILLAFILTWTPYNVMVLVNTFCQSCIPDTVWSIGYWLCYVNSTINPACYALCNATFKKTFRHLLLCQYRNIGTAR

D2 receptors [5] = biological target: T8, D2 receptors (Homo sapiens, UniProt P14416); experiment: GTPγS binding assay at D2; format: biochemical; parameters: expressed in transfected cells; settings: percent response of reference ligand dopamine; mean ± SEM
Procedure: Cells were not centrifuged following cell scraping, but were collected directly into the ice-cold nitrogen cavitation chamber.
50 μl/well Wheat-Germ Agglutinin SPA beads (Perkin Elmer, Shelton, Conn.) were added to the plates and the plates incubated for 1 hour. The plates were then centrifuged at 1,000×g for 10 minutes and read on a Top Count NXT (Perkin Elmer, Shelton, Conn.).
To relate the results observed in R-SAT™ to a more conventional assay system, these ligands were also tested for the ability to induce GTPγS binding through D2 receptors.

human D3 receptor = biological target: T9, human D3 receptor (Homo sapiens, UniProt P35462); experiment: R-SAT assay D3; format: cell-based; settings: Table 3, D3; percent response of reference Pergolide
T9 construct: expressed in transfected cells

[6] = biological target: human D4 (variant 4.2) receptor (Homo sapiens, UniProt P21917, DEL265-296); format: cell-based
D2 receptors [7] = biological target: T8, D2 receptors; experiment: BRET2 beta-arrestin-2 recruitment assay at D2; format: cell-based; parameters: expressed in transfected cells; host or cells: HEK-293T
Procedure: as §1
Each curve is representative of two to three independent experiments.

D2 receptors [8] = biological target: T8, D2 receptors; experiment: R-SAT functional assay at D2; format: cell-based; parameters: expressed in transfected cells; host or cells: NIH-3T3
human alpha1B receptor = biological target: T10, human alpha1B receptor (Homo sapiens, UniProt P35368); experiment: R-SAT assay α1B; format: cell-based; settings: Table 3, α1B; percent response of reference Phenylephrine
T10 construct: expressed in transfected cells; host or cells: NIH/3T3 cells, transient transfection, pSI vector
T10 sequence (P35368 1-520): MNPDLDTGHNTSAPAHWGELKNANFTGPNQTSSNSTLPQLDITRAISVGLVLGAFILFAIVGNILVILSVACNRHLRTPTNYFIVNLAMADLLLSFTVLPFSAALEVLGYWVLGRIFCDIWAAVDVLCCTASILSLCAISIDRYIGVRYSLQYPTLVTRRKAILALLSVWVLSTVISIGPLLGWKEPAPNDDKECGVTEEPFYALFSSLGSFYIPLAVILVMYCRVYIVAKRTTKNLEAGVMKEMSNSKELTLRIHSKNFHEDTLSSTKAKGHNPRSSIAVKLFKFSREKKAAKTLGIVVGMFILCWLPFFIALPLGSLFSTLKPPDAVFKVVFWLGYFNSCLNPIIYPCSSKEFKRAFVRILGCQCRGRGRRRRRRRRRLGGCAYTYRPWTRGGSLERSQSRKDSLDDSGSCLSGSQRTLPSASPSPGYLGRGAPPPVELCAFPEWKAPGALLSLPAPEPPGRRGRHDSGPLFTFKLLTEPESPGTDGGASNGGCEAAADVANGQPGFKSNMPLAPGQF

human alpha1A receptor = biological target: T11, human alpha1A receptor (Homo sapiens, UniProt P35348); experiment: R-SAT assay α1A; format: cell-based; settings: Table 3, α1A; percent response of reference Phenylephrine
T11 construct: expressed in transfected cells; host or cells: NIH/3T3 cells, transient transfection, pSI vector
T11 sequence (P35348 1-466): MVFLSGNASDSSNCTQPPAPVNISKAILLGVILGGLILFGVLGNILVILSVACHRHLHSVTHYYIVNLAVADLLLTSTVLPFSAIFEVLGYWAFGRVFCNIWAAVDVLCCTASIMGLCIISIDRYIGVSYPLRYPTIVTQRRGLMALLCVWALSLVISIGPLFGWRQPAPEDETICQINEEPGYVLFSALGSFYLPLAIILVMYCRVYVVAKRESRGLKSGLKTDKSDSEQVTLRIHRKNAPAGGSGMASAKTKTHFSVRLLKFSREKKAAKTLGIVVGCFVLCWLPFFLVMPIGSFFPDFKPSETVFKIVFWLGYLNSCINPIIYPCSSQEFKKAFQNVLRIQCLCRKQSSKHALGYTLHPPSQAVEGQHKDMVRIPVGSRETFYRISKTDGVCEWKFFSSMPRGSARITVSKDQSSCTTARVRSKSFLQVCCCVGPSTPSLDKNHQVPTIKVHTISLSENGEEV

human D1 receptor = biological target: T12, human D1 receptor (Homo sapiens, UniProt P21728); experiment: R-SAT assay D1; format: cell-based; settings: Table 3, D1; percent response of reference SKF 38393
T12 construct: expressed in transfected cells; host or cells: NIH-3T3 (inferred: R-SAT host; D1 is in neither method list of b200)

human alpha2C receptor = biological target: T13, human alpha2C receptor (Homo sapiens, UniProt P18825); experiment: R-SAT assay α2C; format: cell-based; settings: Table 3, α2C; percent response of reference UK 14,306
T13 construct: expressed in transfected cells; host or cells: NIH/3T3 cells, transient transfection, pSI vector
T13 sequence (P18825 1-462): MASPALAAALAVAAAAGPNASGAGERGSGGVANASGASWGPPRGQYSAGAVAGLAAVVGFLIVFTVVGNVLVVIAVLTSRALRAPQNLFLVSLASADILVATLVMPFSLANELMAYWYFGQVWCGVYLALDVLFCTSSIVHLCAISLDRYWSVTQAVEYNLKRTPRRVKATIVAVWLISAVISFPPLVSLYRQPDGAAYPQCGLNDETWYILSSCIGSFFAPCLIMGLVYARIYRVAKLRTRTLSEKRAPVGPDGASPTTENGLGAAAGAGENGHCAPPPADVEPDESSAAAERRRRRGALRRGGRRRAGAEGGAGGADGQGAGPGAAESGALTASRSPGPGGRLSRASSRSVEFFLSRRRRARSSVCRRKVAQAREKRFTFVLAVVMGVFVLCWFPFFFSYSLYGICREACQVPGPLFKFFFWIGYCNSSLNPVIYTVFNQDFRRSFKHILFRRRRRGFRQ

[9] = percent response of reference ligand 5-HT

T3 sequence (P28223 whole entry): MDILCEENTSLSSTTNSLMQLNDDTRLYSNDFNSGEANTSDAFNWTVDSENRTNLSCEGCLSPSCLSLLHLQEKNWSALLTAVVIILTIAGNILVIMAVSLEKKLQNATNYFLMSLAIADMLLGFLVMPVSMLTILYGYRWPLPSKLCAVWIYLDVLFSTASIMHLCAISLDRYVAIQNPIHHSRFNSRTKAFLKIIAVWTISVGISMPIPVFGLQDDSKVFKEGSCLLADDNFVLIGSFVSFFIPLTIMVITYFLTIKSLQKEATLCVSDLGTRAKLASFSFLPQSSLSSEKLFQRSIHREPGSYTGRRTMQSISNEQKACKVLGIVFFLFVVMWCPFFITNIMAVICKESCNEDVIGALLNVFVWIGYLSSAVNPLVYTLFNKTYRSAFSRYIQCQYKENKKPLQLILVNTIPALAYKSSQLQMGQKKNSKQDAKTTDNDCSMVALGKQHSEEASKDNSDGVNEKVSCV
T8 sequence (P14416 1-414 isoform P14416-2): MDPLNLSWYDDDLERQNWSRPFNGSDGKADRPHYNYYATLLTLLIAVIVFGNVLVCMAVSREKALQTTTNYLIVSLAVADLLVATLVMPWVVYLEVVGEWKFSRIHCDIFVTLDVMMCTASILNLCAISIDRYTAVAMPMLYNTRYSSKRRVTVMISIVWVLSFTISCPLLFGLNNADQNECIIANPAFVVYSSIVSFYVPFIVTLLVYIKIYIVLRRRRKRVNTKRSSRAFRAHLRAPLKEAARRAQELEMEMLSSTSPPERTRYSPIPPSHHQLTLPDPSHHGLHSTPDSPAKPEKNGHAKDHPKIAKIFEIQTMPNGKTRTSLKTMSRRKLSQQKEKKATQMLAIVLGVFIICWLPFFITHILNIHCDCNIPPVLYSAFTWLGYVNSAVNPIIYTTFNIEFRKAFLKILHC
5-HT2B receptors, sequence (P41595 whole entry): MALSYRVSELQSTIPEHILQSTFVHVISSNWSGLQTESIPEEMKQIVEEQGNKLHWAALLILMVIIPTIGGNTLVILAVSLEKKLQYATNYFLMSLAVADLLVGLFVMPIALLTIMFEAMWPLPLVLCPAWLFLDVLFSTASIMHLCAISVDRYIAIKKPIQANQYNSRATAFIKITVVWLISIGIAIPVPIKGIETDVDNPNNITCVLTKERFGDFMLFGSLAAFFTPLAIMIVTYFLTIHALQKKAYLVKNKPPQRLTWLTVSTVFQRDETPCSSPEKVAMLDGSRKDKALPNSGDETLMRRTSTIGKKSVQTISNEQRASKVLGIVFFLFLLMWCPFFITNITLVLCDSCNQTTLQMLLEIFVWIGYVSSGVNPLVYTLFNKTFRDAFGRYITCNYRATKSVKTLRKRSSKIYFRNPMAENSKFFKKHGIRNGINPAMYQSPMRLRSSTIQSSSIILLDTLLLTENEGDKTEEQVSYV
human 5-HT6 receptor, sequence (P50406 whole entry): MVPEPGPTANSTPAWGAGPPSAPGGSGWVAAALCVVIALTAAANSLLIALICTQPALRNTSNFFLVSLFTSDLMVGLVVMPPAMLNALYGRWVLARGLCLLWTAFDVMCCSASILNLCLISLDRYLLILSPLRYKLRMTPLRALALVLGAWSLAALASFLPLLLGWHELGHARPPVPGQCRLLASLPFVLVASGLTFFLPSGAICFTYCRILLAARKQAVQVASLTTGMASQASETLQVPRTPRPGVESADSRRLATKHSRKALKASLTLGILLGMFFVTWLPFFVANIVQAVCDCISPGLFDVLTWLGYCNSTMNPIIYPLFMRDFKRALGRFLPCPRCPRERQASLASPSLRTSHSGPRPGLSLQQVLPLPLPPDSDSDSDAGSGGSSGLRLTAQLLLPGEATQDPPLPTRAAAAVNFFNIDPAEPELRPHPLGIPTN
human 5-HT1B receptor, sequence (P28222 whole entry): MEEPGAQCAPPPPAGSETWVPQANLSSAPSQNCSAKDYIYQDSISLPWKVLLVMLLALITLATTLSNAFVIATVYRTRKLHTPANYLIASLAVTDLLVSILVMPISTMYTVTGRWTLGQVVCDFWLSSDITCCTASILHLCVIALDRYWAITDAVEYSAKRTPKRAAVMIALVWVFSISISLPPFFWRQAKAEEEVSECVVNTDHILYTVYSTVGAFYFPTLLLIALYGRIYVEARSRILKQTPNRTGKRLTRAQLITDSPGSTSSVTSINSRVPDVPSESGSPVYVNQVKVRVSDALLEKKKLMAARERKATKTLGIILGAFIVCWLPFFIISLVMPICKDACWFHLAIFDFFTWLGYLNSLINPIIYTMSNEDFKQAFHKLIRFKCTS
T5 sequence (P08912 whole entry): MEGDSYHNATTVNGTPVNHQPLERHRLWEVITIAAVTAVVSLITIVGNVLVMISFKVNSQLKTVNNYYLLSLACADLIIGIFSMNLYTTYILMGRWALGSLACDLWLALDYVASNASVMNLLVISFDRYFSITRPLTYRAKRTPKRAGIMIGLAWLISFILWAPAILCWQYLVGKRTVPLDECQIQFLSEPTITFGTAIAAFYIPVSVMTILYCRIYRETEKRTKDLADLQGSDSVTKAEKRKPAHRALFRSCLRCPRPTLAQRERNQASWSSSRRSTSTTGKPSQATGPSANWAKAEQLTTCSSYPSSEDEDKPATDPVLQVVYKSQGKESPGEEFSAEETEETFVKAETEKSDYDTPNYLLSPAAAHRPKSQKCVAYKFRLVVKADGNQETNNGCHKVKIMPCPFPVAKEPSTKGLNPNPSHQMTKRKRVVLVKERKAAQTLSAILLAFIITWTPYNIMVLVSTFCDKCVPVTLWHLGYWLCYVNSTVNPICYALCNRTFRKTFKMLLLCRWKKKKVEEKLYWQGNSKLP
human D4 (variant 4.2) receptor, sequence (P21917 with tags, fused parts or gaps DEL265-296): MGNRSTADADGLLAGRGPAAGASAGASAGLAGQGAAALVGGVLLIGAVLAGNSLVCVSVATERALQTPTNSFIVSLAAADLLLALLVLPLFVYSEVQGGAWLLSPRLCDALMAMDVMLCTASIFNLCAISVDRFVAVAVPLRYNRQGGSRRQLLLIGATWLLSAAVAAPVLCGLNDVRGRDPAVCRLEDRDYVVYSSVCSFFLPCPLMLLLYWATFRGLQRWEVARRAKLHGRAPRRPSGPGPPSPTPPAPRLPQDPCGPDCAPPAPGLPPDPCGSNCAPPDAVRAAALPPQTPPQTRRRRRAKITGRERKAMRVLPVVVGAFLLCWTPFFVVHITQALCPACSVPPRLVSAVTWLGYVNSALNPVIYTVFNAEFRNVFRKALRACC
T9 sequence (P35462 whole entry): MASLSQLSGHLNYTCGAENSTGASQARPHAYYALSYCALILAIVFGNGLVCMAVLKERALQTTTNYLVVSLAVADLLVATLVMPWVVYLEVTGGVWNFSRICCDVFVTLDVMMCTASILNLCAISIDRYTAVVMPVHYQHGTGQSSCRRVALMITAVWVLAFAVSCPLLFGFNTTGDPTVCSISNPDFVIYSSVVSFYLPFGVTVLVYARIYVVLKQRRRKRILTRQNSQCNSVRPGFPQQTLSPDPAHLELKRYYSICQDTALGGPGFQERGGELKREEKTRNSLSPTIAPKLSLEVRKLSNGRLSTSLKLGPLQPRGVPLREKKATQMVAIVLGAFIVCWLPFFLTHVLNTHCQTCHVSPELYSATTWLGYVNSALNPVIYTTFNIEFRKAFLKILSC
T4 sequence (P34969 whole entry): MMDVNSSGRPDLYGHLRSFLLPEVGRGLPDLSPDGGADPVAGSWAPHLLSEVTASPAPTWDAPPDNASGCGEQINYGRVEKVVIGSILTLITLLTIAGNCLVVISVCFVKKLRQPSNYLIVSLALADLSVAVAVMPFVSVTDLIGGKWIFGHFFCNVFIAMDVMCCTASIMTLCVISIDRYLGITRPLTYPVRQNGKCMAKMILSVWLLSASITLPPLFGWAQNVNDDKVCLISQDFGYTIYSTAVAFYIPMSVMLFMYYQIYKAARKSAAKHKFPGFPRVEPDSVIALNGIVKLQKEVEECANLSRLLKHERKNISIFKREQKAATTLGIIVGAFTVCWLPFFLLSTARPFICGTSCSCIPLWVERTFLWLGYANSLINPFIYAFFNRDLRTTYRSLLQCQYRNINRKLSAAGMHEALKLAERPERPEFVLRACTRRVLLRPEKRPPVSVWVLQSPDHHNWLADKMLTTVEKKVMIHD
T12 sequence (P21728 whole entry): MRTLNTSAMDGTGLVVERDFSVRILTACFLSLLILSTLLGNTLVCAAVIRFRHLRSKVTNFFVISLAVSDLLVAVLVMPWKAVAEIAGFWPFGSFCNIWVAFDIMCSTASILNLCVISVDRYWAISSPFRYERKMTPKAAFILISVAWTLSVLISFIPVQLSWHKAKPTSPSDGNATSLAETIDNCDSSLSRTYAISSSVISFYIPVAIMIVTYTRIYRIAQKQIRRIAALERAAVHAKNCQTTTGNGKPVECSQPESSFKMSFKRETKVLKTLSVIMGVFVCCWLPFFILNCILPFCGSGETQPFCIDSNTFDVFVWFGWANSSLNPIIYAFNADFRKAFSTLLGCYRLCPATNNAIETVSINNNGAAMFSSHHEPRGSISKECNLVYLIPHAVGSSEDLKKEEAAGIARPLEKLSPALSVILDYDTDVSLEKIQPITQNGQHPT
T2 sequence (P28221 whole entry): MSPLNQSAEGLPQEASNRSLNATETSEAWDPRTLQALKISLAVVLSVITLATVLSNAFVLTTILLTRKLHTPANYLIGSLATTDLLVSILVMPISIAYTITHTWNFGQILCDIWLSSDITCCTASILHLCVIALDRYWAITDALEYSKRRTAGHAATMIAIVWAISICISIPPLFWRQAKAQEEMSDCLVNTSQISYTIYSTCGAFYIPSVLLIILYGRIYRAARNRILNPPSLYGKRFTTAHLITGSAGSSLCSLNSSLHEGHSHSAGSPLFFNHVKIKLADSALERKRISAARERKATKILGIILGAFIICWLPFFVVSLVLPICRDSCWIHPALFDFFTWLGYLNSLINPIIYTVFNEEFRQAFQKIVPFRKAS

Eff (%) (human M5 receptor): 100%
Eff (%) (human M2 receptor): 100%
Eff (%) (human M4 receptor): 100%
Structure (SMILES): C[N+](C)(C)CCOC(N)=O [Carbachol, reference compound]

Eff (%) (human alpha1B receptor): 100%
Eff (%) (human alpha1A receptor): 100%
Structure (SMILES): CNC[C@H](O)c1cccc(O)c1 [Phenylephrine, reference compound]

Eff (%) (human alpha2C receptor): 100%
Structure (SMILES): Brc1c(NC2=NCCN2)ccc2nccnc12 [UK 14,306, reference compound]

Second part, the molecule before the results:

Structure (SMILES): NCCc1c[nH]c2ccc(C(N)=O)cc12 [5-CT, 5-carboxamidotryptamine, reference compound]
Eff (%) [1]: 100%
Eff (%) (human 5-HT1D receptor): 100%
EC50 (human 5-HT6 receptor): 251 nM
Eff (%) (human 5-HT6 receptor; Table 3, 5-HT6, percent response of reference 5-CT): 100%
EC50 (human 5-HT2A receptors [2]; negative logarithm of EC50 in molar (M), HEK 293T cells, read-out: BRET2 pEC50 (converted)): 2e-07 M
BRET2 Eff % (human 5-HT2A receptors [2]; [9]): 98 ± 3%
EC50 (human 5-HT2A receptors [3]; negative logarithm of EC50 in molar (M), HEK 293T cells, read-out: PI Hydrolysis pEC50 (converted)): 2.51e-07 M
PI Hydrolysis Eff (%) (human 5-HT2A receptors [3]; [9]): 92 ± 4%
EC50 (5-HT2B receptors): 50.1 nM
Eff (%) (5-HT2B receptors; Table 3, 5-HT2B, percent response of reference 5-CT): 100%
Eff (%) (human 5-HT7 receptor): 100%
EC50 (human 5-HT2A receptors [4]; Table 1, negative logarithm of EC50 in molar (M), NIH3T3 cells, mean ± SEM, read-out: R-SAT pEC50 (converted)): 6.31e-08 M
R-SAT Eff(%) (human 5-HT2A receptors [4]; Table 1, percent response of reference ligand 5-CT, mean ± SEM): 100 ± 0%
EC50 (human 5-HT2A receptors [4]; Table 3, 5-HT2A, negative logarithm of EC50 in molar, read-out: pEC50 (converted)): 7.94e-08 M
Eff (%) (human 5-HT2A receptors [4]; Table 3, 5-HT2A, percent response of reference 5-CT): 100%
EC50 (human 5-HT1B receptor): 6.31 nM
Eff (%) (human 5-HT1B receptor; Table 3, 5-HT1B, percent response of reference 5-CT): 100%

Structure (SMILES): CCCN1C[C@H](CSC)C[C@@H]2c3cccc4[nH]cc(c34)C[C@H]21 [Pergolide]
GTPγS Eff % (D2 receptors [5]): 94 ± 7%
Eff (%) (human D3 receptor): 100%
Eff (%) [6]: 100%
agonist profile in BRET2 assays at D2 receptors (D2 receptors [7]): partial agonists
BRET2 Eff % (D2 receptors [7]; percent response of reference ligand dopamine, mean ± SEM): 64 ± 3%
R-SAT Eff(%) (D2 receptors [8]; Table 2, percent response of reference ligand pergolide, mean ± SEM): 100 ± 0%
Eff (%) (D2 receptors [8]; Table 3, D2, percent response of reference Pergolide): 100%

Structure (SMILES): Oc1cc2c(cc1O)C(c1ccccc1)CNCC2 (stereo not shown) [SKF 38393, reference compound]
Eff (%) (human D1 receptor): 100%
